The subject of data set [1] is IL-1B and IL-6 gene expression in rainbow trout macrophages. Description: RT-PCR of IL-1B and IL-6 in trout macrophages with different cyclodextrins (FIG. 4). The class given is cell-based. To be noted: trout macrophages stimulated 30 minutes to 24 hours. How it is done: Trout macrophages were stimulated for 30 minutes to 24 hours with heptakis (2,6-di-O-methyl)-β-cyclodextrin (Heptakis); methyl-β-cyclodextrin (Methyl β); beta cyclodextrin (β CyD); 2-hydroxypropyl-β-cyclodextrin (Hydroxy β); 2-hydroxypropyl-α-cyclodextrin (Hydroxy α); gamma cyclodextrin (γ CyD). RNA was extracted and RT-PCR conducted with IL-1B and IL-6. 18s was a RNA loading control. Molecular weight standard in first lane
Since there are various forms of cyclodextrins with different side groups that appear to have different effects in mammalian macrophages, the effects of different cyclodextrins on gene expression in the trout macrophage cell cultures were tested. Trout macrophages were stimulated for 30 minutes to 24 hours with heptakis (2,6-di-O-methyl)-β-cyclodextrin (Heptakis); methyl-β-cyclodextrin (Methyl β); beta cyclodextrin (β CyD); 2-hydroxypropyl-β-cyclodextrin (Hydroxy β; 2-hydroxypropyl-α-cyclodextrin (Hydroxy α); gamma cyclodextrin (γ CyD). RNA was extracted and RT-PCR conducted with IL-1B and IL-6.
From these cell experiments, it was shown that cyclodextrin could up-regulate the innate immune system and could possibly be used as an immune agent to protect fish against pathogen challenges.

Data set [2] relates to zebrafish larvae. Put plainly: Larval viability during cyclodextrin treatment after first feeding. The class given is in vivo. Conditions: zebrafish larvae bathed with 500 μg/mL, recorded 10 days post first feeding. How it is done: The larval viability during cyclodextrin treatment was explored. The survival during treatment was compared with normal larval growth condition after first feeding (day 5 post hatch). 6 independent batches by reproduction (84 embryos by batch) of zebrafish larvae were bathed with 0 (“Control”; normal larval growth condition) or 500 μg/mL of beta cyclodextrin (“β CyD”), alpha cyclodextrin (“α CyD”) or both (“β+α CyD”; 50/50% of each). Larval survival was recorded 10 days post first feeding ([…]) and was increased with all cyclodextrin treatments (FIG. 7).

For data set [3], the system named is zebrafish larvae. Put plainly: LPS challenge of zebrafish larvae bathed with cyclodextrin. Format: in vivo. To be noted: zebrafish larvae 2 dpf, bath 67.5-500 μg/mL, then LPS 150 μg/mL Pseudomonas aeruginosa, mortality over 36 hours. How it is done:
FIGS. 5A and 5B show replicates of the effects of α-cyclodextrin at various concentrations on LPS challenge. Zebrafish larvae, 2 days post-fertilization, were bathed with 0, 67.5, 125, 250 or 500 μg/mL of alpha cyclodextrin. Zebrafish larvae were then bathed with a lethal concentration (100% mortality) of LPS (150 μg/mL—Pseudomonas aeruginosa) and assessed for mortality over 36 hours. FIGS. 5A and 5B show the cumulative mortality after challenge of zebrafish larvae treated with α-cyclodextrin
FIGS. 6A and 6B show replicates of the effects of β-cyclodextrin at various concentrations on LPS challenge performed in replicate. Zebrafish larvae, 2 days post-fertilization, were bathed with 0, 67.5, 125, 250 or 500 μg/mL of beta cyclodextrin. Zebrafish larvae were then bathed with a lethal concentration (100% mortality) of LPS (150 μg/mL—Pseudomonas aeruginosa) and assessed for mortality over 36 hours. FIGS. 6A and 6B show the cumulative mortality after challenge of zebrafish larvae treated with β-cyclodextrin
To test this, zebrafish larvae, 2 days post fertilization (dpf), were bathed with 0, 67.5, 125, 250 or 500 μg/mL of beta or alpha cyclodextrin. Zebrafish larvae were then bathed with a lethal concentration (i.e., 100% mortality) of bacterial lipopolysaccharide (LPS) (150 μg/mL Pseudomonas aeurginosa). […]

The subject of data set [4] is TNF, Mx, IL-6, IL-1B, TLR, IFN, CD18, PU1 gene expression in trout macrophages. Put plainly: RT-PCR of immune genes in trout macrophages stimulated 24 hours (FIG. 3). The class given is cell-based, rainbow trout. How it is done: Cells were stimulated for 24 hours and RNA extracted and RT-PCR conducted with TNF (tissue necrosis factor), Mx protein, IL-6 (interleukin 6), IL-1B (interleukin 1B), TLR (toll-like receptor), IFN (interferon), CD18 (cluster of differentiation 18), and PU1 (transcription factor PU1). 18S is a RNA loading control. Molecular weight standard in first lane.
The effects of cyclodextrin on the expression of several other genes such as TNF and IL-6 that are also pro-inflammatory were studied (FIG. 3). […] Cells were stimulated for 24 hours and RNA extracted and RT-PCR conducted with TNF (tissue necrosis factor), Mx protein, IL-6 (interleukin 6), IL-1B (interleukin 1B), TLR (toll-like receptor), IFN (interferon), CD18 (cluster of differentiation 18), and PU1 (transcription factor PU1). 18S is a RNA loading control. Molecular weight standard is in the first lane.

The subject of data set [5] is trout macrophages. Put plainly: QBlue Cell Viability Assay (resazurin reduction) in trout macrophages. Format: cell-based, rainbow trout. Conditions: same cells as FIG. 1, saponin positive control. From the text: High fluorescence indicates no loss in cell viability. Cells were the same ones used in FIG. 1. Saponin is a positive control since it kills cells.
A primary trout macrophage culture system was used to investigate how pathogens are recognized by the innate immune system in fish (MacKenzie et al., Developmental and Comparative Immunology 27:393-400 (2003); Iliev et al., Molecular Immunology 42:1215-1223 (2005); Iliev et al. FEBS Letters 579 (29):6519-6528 (2005)). In this system, macrophages can be stimulated by various compounds and the expression of immune genes such as interleukin 1 B (IL-1B) or tissue necrosis factor (TNF) can be assayed as a measure of the degree of inflammatory stimulation and, thus, activation of the innate immune system. The effect of nanoparticles on the immune system of trout as an indication of the possible harmful effects of these compounds on aquatic organisms was studied. This involved exposing the cultured trout macrophages to nanoparticles and looking for effects on IL-1B and interferon alpha (IFNa) gene expression. Bacterial lipopolysaccharide (LPS) was used as a positive stimulatory control. […] RNA was extracted from cells and analyzed by QPCR for IL-1B expression. […] The effect of beta cyclodextrin on any cell viability was determined using the QBlue Cell Viability Assay Kit (BioChain) and saponin as a positive control for cell death.
On the technique in general: Alamar Blue is a resazurin reagent that responds to reducing activity.

Data set [6] deals with IL-1B gene expression in trout macrophages. Put plainly: IL-1B gene expression in primary trout macrophage culture (QPCR). Format: cell-based, rainbow trout. Conditions: trout macrophages stimulated 24 hours, LPS positive control. How it is done: LPS is a positive stimulatory control. Macrophages were isolated from head kidneys of rainbow trout, plated and then stimulated with the preparations for 24 hours. RNA was extracted from cells and analyzed by QPCR for IL-1B expression. Data are means for 3 independent trials.
Standard SYBR-green based methodology was used for anti-viral and pro-inflammatory gene expression in mucosal immune system (intestine/gills/skin/spleen) to evaluate effective dose and identify the effects of β-cyclodextrins on tissue activation profiles. Briefly, 2 μg of total RNA was used for cDNA synthesis (SuperScript® III, Invitrogen) and subsequently diluted with nuclease-free water to 1 ng/μL cDNA. Gene-specific high-melting temperature primers for genes of interest were designed using NCBI/Primer-BLAST suite. […] Quantitative expression data between different times were examined by one-way ANOVA using SPSS 17 statistical software and the differences were considered significant at p<0.05.
A primary trout macrophage culture system was used to investigate how pathogens are recognized by the innate immune system in fish (MacKenzie et al., Developmental and Comparative Immunology 27:393-400 (2003); Iliev et al., Molecular Immunology 42:1215-1223 (2005); Iliev et al. FEBS Letters 579 (29):6519-6528 (2005)). […] RNA was extracted from cells and analyzed by QPCR for IL-1B expression. […]

For the molecule `COC[C@H]1O[C@@H]2O[C@H]3[C@H](O)[C@@H](OC)[C@@H](O[C@H]4[C@H](O)[C@@H](OC)[C@@H](O[C@H]5[C@H](O)[C@@H](OC)[C@@H](O[C@H]6[C@H](O)[C@@H](OC)[C@@H](O[C@H]7[C@H](O)[C@@H](OC)[C@@H](O[C@H]8[C@H](O)[C@@H](OC)[C@@H](O[C@H]1[C@H](O)[C@H]2OC)O[C@@H]8COC)O[C@@H]7COC)O[C@@H]6COC)O[C@@H]5COC)O[C@@H]4COC)O[C@@H]3COC` [Heptakis, heptakis (2,6-di-O-methyl)-β-cyclodextrin], in data set [1], the IL-1B expression entry is recorded as “stimulated” and the IL-6 expression entry was “stimulated”.
Consider `OC[C@H]1O[C@@H]2O[C@H]3[C@H](O)[C@@H](O)[C@@H](O[C@H]4[C@H](O)[C@@H](O)[C@@H](O[C@H]5[C@H](O)[C@@H](O)[C@@H](O[C@H]6[C@H](O)[C@@H](O)[C@@H](O[C@H]7[C@H](O)[C@@H](O)[C@@H](O[C@H]1[C@H](O)[C@H]2O)O[C@@H]7CO)O[C@@H]6CO)O[C@@H]5CO)O[C@@H]4CO)O[C@@H]3CO` [alpha cyclodextrin], for which the “larval survival versus control” value in data set [2] is recorded as “increased”. In addition, in data set [3], the “protection of larvae against lethal LPS challenge” value is listed as “protected the larvae against the LPS”.
With `OC[C@H]1O[C@@H]2O[C@H]3[C@H](O)[C@@H](O)[C@@H](O[C@H]4[C@H](O)[C@@H](O)[C@@H](O[C@H]5[C@H](O)[C@@H](O)[C@@H](O[C@H]6[C@H](O)[C@@H](O)[C@@H](O[C@H]7[C@H](O)[C@@H](O)[C@@H](O[C@H]8[C@H](O)[C@@H](O)[C@@H](O[C@H]1[C@H](O)[C@H]2O)O[C@@H]8CO)O[C@@H]7CO)O[C@@H]6CO)O[C@@H]5CO)O[C@@H]4CO)O[C@@H]3CO` [beta cyclodextrin], in data set [4], the “most highly stimulated gene” value is “IL-1B”. Besides, in data set [5], the cell viability entry is listed as “No effect on viability”. The “larval survival versus control” value in data set [2] is on record as “increased”. Moreover, the IL-1B expression result in data set [6] is on record as “potent stimulator of inflammatory gene expression”. Also, the “protection of larvae against lethal LPS challenge” value in data set [3] is given as “protected the larvae against the LPS”.
On to `OC[C@H]1O[C@@H]2O[C@H]3[C@H](O)[C@@H](O)[C@@H](O[C@H]4[C@H](O)[C@@H](O)[C@@H](O[C@H]5[C@H](O)[C@@H](O)[C@@H](O[C@H]6[C@H](O)[C@@H](O)[C@@H](O[C@H]7[C@H](O)[C@@H](O)[C@@H](O[C@H]8[C@H](O)[C@@H](O)[C@@H](O[C@H]9[C@H](O)[C@@H](O)[C@@H](O[C@H]1[C@H](O)[C@H]2O)O[C@@H]9CO)O[C@@H]8CO)O[C@@H]7CO)O[C@@H]6CO)O[C@@H]5CO)O[C@@H]4CO)O[C@@H]3CO` [gamma cyclodextrin], for which, in data set [1], the IL-1B expression result is reported as “most effective form”.

The values above are taken from patent publication US20140086961A1, “USE OF CYCLODEXTRINS IN DIETS, WATER OR VACCINE ADJUVANTS TO BOOST THE IMMUNE SYSTEM OF FISH” (priority 2011, published 2014).
